The text below walks through data of publication PMC10175918 (Communications Biology, 2023).

Where “and” joins values, the source holds several entries; their conditions need not be identical. Equal entries are not always repeated. Where two headings read alike, the source gives them in different places.

Assay [1] deals with T1, relaxin/insulin-like family peptide receptor 1 (Homo sapiens, UniProt Q9HBX9).
T1 construct: gene RXFP1
T1 sequence (Q9HBX9 1-757): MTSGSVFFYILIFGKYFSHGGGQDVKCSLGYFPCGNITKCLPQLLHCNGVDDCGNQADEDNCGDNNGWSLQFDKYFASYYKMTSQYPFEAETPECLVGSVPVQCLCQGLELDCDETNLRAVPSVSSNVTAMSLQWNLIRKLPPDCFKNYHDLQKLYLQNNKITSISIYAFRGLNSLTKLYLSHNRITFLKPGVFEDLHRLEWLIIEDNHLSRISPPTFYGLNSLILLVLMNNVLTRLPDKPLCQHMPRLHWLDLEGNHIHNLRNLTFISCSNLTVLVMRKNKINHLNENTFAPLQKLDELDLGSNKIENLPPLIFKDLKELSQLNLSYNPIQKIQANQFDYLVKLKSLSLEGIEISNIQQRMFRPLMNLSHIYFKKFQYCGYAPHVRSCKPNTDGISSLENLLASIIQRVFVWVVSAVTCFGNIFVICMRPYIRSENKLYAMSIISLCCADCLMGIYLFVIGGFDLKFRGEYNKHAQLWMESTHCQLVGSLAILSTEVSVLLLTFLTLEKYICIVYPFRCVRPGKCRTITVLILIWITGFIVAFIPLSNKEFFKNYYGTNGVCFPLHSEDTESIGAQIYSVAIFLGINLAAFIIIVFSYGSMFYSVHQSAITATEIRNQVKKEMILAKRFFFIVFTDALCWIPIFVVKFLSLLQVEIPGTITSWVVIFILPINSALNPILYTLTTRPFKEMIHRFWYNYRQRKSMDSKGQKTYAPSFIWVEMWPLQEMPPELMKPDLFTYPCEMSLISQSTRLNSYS
Description: cell-based. Further details: species or system HEK293A; AP-TGFα shedding assay, transfected GPCR plus chimeric Gα mixture, AP release as % of TPA response. To be noted: HEK293-A.

In assay [2] the target is T2, G protein-coupled receptor 68 long (Homo sapiens, UniProt Q15743).
T2 construct: gene GPR68; long isoform
T2 sequence (Q15743 whole entry, canonical isoform): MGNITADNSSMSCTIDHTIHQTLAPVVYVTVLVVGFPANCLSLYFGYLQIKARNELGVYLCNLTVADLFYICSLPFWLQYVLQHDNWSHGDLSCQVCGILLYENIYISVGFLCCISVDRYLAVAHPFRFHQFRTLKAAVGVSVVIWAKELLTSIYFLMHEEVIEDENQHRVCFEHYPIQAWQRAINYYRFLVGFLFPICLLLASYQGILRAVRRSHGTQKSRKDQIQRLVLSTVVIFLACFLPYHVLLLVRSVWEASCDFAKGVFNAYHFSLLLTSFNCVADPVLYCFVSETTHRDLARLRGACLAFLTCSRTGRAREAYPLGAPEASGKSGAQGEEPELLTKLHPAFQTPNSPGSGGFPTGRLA
Description: cell-based. Further details: species or system HEK293A; AP-TGFα shedding assay, transfected GPCR plus chimeric Gα mixture, AP release as % of TPA response. To be noted: HEK293-A.

Assay [3] has as its target T3, purinergic receptor P2Y, G-protein coupled, 13 short (Homo sapiens, UniProt Q9BPV8).
T3 construct: gene P2RY13; short
T3 sequence (Q9BPV8 1-354): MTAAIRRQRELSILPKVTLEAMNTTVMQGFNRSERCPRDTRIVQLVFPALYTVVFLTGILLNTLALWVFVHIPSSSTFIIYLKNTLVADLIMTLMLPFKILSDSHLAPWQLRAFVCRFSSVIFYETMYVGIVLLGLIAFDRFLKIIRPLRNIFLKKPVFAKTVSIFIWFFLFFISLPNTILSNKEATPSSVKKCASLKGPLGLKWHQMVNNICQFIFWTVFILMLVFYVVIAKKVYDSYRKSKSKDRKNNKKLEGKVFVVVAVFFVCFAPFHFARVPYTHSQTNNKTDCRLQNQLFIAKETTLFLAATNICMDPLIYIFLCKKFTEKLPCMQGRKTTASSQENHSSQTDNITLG
The assay is described as follows: cell-based. Further details: species or system HEK293A; AP-TGFα shedding assay, transfected GPCR plus chimeric Gα mixture, AP release as % of TPA response. To be noted: HEK293-A.

Assay [4] has as its target T4, G protein-coupled receptor 18 (Homo sapiens, UniProt Q14330).
T4 construct: gene GPR18
T4 sequence (Q14330 1-331): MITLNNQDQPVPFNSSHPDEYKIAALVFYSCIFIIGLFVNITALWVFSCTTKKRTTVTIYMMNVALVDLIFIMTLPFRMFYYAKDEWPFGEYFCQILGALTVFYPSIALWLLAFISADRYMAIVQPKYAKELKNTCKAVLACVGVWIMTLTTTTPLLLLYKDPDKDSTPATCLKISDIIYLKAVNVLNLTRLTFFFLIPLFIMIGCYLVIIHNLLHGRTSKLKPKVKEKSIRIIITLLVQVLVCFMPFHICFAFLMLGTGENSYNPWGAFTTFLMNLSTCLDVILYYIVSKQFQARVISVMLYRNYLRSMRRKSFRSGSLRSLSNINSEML
Description: cell-based. Further details: species or system HEK293A; AP-TGFα shedding assay, transfected GPCR plus chimeric Gα mixture, AP release as % of TPA response. To be noted: HEK293-A.

Assay [5] deals with T5, GPR132 (Homo sapiens, UniProt Q9UNW8).
T5 sequence (Q9UNW8 1-380): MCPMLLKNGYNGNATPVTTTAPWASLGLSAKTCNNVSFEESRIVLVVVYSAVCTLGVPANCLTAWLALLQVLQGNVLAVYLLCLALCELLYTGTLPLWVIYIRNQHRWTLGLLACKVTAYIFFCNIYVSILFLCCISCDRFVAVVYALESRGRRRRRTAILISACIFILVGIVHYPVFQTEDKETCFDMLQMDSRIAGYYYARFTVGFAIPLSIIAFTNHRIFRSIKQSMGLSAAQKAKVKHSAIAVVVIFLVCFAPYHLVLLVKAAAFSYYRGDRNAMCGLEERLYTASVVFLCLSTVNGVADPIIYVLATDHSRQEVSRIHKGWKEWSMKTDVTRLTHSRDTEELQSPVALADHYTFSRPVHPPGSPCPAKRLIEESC
The assay is described as follows: cell-based. Further details: species or system HEK293A; AP-TGFα shedding assay, transfected GPCR plus chimeric Gα mixture, AP release as % of TPA response. To be noted: HEK293-A.

The target in assay [6] is T6, urotensin-II receptor (UTS2R) (Homo sapiens, UniProt Q9UKP6).
T6 construct: expressed in transfected cells; host or cells: HEK293A
T6 sequence (Q9UKP6 1-389): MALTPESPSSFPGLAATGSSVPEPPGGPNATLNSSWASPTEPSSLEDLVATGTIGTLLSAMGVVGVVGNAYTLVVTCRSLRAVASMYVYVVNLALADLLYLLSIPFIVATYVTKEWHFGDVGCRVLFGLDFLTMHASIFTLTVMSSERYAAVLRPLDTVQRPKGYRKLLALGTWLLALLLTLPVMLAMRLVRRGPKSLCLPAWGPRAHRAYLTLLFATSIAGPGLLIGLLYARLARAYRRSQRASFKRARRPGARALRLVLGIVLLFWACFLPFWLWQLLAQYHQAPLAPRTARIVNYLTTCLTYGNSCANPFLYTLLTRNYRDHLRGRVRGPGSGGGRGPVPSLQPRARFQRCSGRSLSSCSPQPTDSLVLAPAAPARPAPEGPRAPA
Description: TGFα-shedding assay, concentration-response on UTS2R (endogenous G protein), with or without urantide. The assay is classed as cell-based.

Setting [7] is: read-out: % GPCR activation of 10μM Sofosbuvir compared to TPA.
[8] abbreviates: read-out: % GPCR activation of 100μM Favipiravir compared to TPA.
The mark [9] stands for this setting: read-out: % GPCR activation of 10µM Remdesivir compared to TPA.
Where [10] appears, read: read-out: % GPCR activation of 10μM GS441524 compared to TPA.
[11] abbreviates: read-out: % GPCR activation of 10µM Molnupiravir compared to TPA.

Regarding `CC(C)OC(=O)[C@H](C)N[P@](=O)(OC[C@H]1O[C@@H](n2ccc(=O)[nH]c2=O)[C@](C)(F)[C@@H]1O)Oc1ccccc1` [sofosbuvir], the activity at 10 µM is 0.456% in assay [1] (setting [7]); -162% in assay [2] (setting [7]); -2.68% in assay [3] (setting [7]); -3.04% in assay [4] (setting [7]); -1.37% in assay [5] (setting [7]). In addition, the UTS2R activation result in assay [6] (TGFα-shedding, screening 10 μM and response curves (Fig. 1a, Supplementary Fig. 1a)) is on record as “did not activate UTS2R”.
As for `NC(=O)c1nc(F)cnc1O` [favipiravir, 6-fluoro-3-hydroxy-2-pyrazinecarboxamide], the activity at 100 µM in assay [1] (setting [8]) is 0.274%; in assay [2] (setting [8]), 5.02%; in assay [3] (setting [8]), 1.7%; in assay [4] (setting [8]), -1%; in assay [5] (setting [8]) it was 7.4%.
For the compound `CCC(CC)COC(=O)[C@H](C)N[P@](=O)(OC[C@H]1O[C@@](C#N)(c2ccc3c(N)ncnn23)[C@H](O)[C@@H]1O)Oc1ccccc1` [remdesivir], the activity at 10 µM in assay [1] (setting [9]) was -0.564%; in assay [2] (setting [9]) it was -2.93%; in assay [3] (setting [9]), 2.55%; in assay [4] (setting [9]) it was 1.12%; in assay [5] (setting [9]) it was 11%. For the same compound, in assay [6], the Emax (usually the greatest response seen or fitted, relative to the assay's reference) was 47 ± 1.4%. Moreover, the 50% effective concentration (EC50) (usually the midpoint of the concentration-response curve) in assay [6] (WT EC50 (Remdesivir), wild-type UTS2R control run alongside the mutant) is 17.4 µM and 15.9 µM and 10.7 µM and 14 µM and 10.2 µM and 10.8 µM and 12.4 µM (2×) and 18 µM and 11.6 µM and 18.5 µM; in assay [6] (pEC50 (TGFα-shedding response for UTS2R), WT UTS2R, without chimeric Gα protein, HEK293A cells) it was 12.9 µM. Further, in assay [6] (read-out: UTS2R activation (%AP-TGFα release), compound concentration Log10 (M) -5, without urantide), the activation at 10 µM was 15%. Besides, the activation at 3.3 µM in assay [6] (read-out: UTS2R activation (%AP-TGFα release), compound concentration Log10 (M) -5.48149, without urantide) is 7.9%.
On to `N#C[C@@]1(c2ccc3c(N)ncnn23)O[C@H](CO)[C@@H](O)[C@H]1O` [GS441524], for which the activity at 10 µM in assay [1] (setting [10]) was -1.09%; in assay [2] (setting [10]) it was 3.27%; in assay [3] (setting [10]) it was 0.947%; in assay [4] (setting [10]) it was 2.08%; in assay [5] (setting [10]), -8.13%.
Take `CC(C)C(=O)OC[C@H]1O[C@@H](n2ccc(NO)nc2=O)[C@H](O)[C@@H]1O` [molnupiravir]: the activity at 10 µM in assay [1] (setting [11]) is -0.957%; in assay [2] (setting [11]), -160%; in assay [3] (setting [11]), -3.48%; in assay [4] (setting [11]) it was -5.39%; in assay [5] (setting [11]) it was -1.8%.
